Measured values reported in patent publication EP4603105A1, “PHARMACEUTICAL COMPOSITION CONTAINING CYCLIC COMPOUND HAVING SELECTIVE KRAS INHIBITORY EFFECT AGAINST HRAS AND NRAS” (CHUGAI SEIYAKU KABUSHIKI KAISHA, priority 2022, dated 2024).
*1 amine or outer side, *2 acyl side, *3 side chain or, on linkers, in order; H or OH if unused. Where a SMILES comes first, the peptide text is derived from it. Bridges are numbered along the chain shown (N, C = ends). [ ]: non-standard residue; d: D form. The star is where a group is joined. hPhe(3,5-F2-4-CF3) = N[C@@H](CCc1cc(F)c(C(F)(F)F)c(F)c1)C(=O)O; hPhe(3-Cl-4-CF3) = N[C@@H](CCc1ccc(C(F)(F)F)c(Cl)c1)C(=O)O; X48 = CCCN([C@@H](Cc1ccc(OCC=[*:3])cc1)C(=O)[*:2])[*:1]; NPrPhe(4-CF3) = CCCN[C@@H](Cc1ccc(C(F)(F)F)cc1)C(=O)O; X47 = CN([C@@H](CCC=[*:3])C(=O)[*:2])[*:1]; Pip(4,4-F2) = O=C(O)[C@@H]1CC(F)(F)CCN1; NMeGly(cPent) = CN[C@H](C(=O)O)C1CCCC1; Hyp = O=C(O)[C@@H]1C[C@@H](O)CN1; NMeD = CN[C@@H](CC(=O)O)C(=O)O; NMeL = CN[C@@H](CC(C)C)C(=O)O; Morpholide = C1CN(*)CCO1; NMeA = CN[C@@H](C)C(=O)O; Ac5c = NC1(C(=O)O)CCCC1; Aze = O=C(O)[C@@H]1CCN1; Ac4c = NC1(C(=O)O)CCC1; NEtG = CCNCC(=O)O; Sar = CNCC(=O)O

Experiments:
[1] = target: HRAS wild-type protein (Homo sapiens, UniProt P01112); experiment: Binding to HRAS by surface plasmon resonance (SPR), KD and KD ratio to KRAS
In short: (§1)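 Single-cycle kinetics on GDP-loaded biotin-Avi RAS captured to ~100–300 RU; 75 s ascending injections, 100 µL/min, 30°C. HBS pH 7.4 + 10 mM MgCl2/10 µM GDP/4% DMSO. 1:1 fit, KD.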

[2] = target: GDP-bound NRAS wild-type protein (Homo sapiens, UniProt P01111); experiment: Binding to NRAS by surface plasmon resonance (SPR), KD and KD ratio to KRAS
In short: as §1

[3] = system: human lung cancer strain NCI-H441; format: cell-based
In short: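 Proliferation was scored by […] measured after the reagent was added to cultures kept at 37°C in 5% carbon dioxide.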

[4] = ratio of the KD value with respect to HRAS wild-type protein to the KD value with respect to KRAS
[5] = ratio of the KD value with respect to GDP-bound NRAS wild-type protein to the KD value with respect to KRAS
[6] = ratio of KD for HRAS wild-type protein to KD for KRAS
[7] = ratio of KD for GDP-bound NRAS wild-type protein to KD for KRAS

Chain of HRAS wild-type protein (P01112 whole entry): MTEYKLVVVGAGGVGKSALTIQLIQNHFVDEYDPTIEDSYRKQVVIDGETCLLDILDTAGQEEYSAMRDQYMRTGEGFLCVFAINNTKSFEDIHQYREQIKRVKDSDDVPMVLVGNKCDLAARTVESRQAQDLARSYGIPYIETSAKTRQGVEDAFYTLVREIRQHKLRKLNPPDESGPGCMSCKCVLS
Chain of GDP-bound NRAS wild-type protein (P01111 whole entry): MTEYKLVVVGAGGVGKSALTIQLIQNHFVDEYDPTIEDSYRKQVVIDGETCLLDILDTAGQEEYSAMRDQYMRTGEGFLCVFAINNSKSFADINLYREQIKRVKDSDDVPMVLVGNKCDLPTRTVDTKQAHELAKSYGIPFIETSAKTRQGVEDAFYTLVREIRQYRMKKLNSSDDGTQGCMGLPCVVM

Row | Structure (SMILES) | HRAS /KRAS [1, 4] | NRAS /KRAS [2, 5] | IC50 [3] | HRAS /KRAS [1, 6] | NRAS /KRAS [2, 7]
1 | CCCN1C(=O)CN(C)C(=O)CN(CC)C(=O)[C@H]([C@@H](C)CC)NC(=O)[C@H](CC(C)C)N(C)C(=O)C[C@@H](C(=O)N(C)C)N(C)C(=O)[C@H](C2CCCC2)N(C)C(=O)C2(CCC2)NC(=O)[C@@H]2CCCN2C(=O)[C@H](CCc2ccc(C(F)(F)F)c(Cl)c2)NC(=O)CN(C)C(=O)[C@@H]1Cc1ccc(C(F)(F)F)cc1 [PP0424] ([NMeL]I[NEtG][Sar][NPrPhe(4-CF3)][Sar][hPhe(3-Cl-4-CF3)]P[Ac4c][NMeGly(cPent)][NMeD]-NMe2; lactam N-11) | C (A compound having a KD ratio of 0.1 or more and less than 3 is denoted as C) | B (a compound having 3 or more and less than 10 is denoted as B) | 9.5 nM |  | 
2 | CCO[C@@H]1C[C@H]2C(=O)NC3(CCC3)C(=O)N(C)[C@@H](C3CCCC3)C(=O)N(C)[C@H](C(=O)N(C)C)CC(=O)N(C)[C@@H](CC)C(=O)N[C@@H]([C@@H](C)CC)C(=O)N(C)CC(=O)N(C)[C@H]3C/C=C\CCN(C3=O)[C@@H](Cc3ccc(C(F)(F)F)cc3)C(=O)N(C)CC(=O)N[C@@H](CCc3cc(F)c(C(F)(F)F)c(F)c3)C(=O)N2C1 [PP0824] |  |  | 23.6 nM | A (a compound having 10 or more and less than 20 is denoted as A) | A (a compound having 10 or more and less than 20 is denoted as A)
3 | CC[C@H](C)[C@@H]1NC(=O)[C@H](CC(C)C)N(C)C(=O)C[C@@H](C(=O)N(C)C)N(C)C(=O)[C@H](C2CCCC2)N(C)C(=O)C2(CCCC2)NC(=O)[C@@H]2CC(F)(F)CN2C(=O)[C@H](CCc2cc(F)c(C(F)(F)F)c(F)c2)NC(=O)CN(C)C(=O)[C@H](Cc2ccc(C(F)(F)F)cc2)N2CCCC[C@@H](C2=O)N(C)C(=O)CN(C)C1=O [PP0576] | B (a compound having 3 or more and less than 10 is denoted as B) | C (A compound having a KD ratio of 0.1 or more and less than 3 is denoted as C) | 2.4 nM |  | 
4 | CCC[C@H]1C(=O)N[C@@H]([C@@H](C)CC)C(=O)N(C2CC2)CC(=O)N(C)[C@H]2C/C=C\CCN(C2=O)[C@@H](Cc2ccc(C(F)(F)F)cc2)C(=O)N(C)CC(=O)N[C@@H](CCc2ccc(C(F)(F)F)c(OC)c2)C(=O)N2C[C@H](OCC)C[C@H]2C(=O)N(C)C2(CCC2)C(=O)N(C)[C@@H](C2CCCC2)C(=O)N(C)[C@H](C(=O)N2CCCC2)CC(=O)N1C [PP3097] |  |  | 5.4 nM | A (a compound having 10 or more and less than 20 is denoted as A) | A (a compound having 10 or more and less than 20 is denoted as A)
5 | CCCN1C(=O)[C@@H]2CCN2C(=O)[C@H](C)N(C)C(=O)[C@H]([C@@H](C)CC)NC(=O)[C@H](CC(C)C)N(C)C(=O)C[C@@H](C(=O)N2CCOCC2)N(C)C(=O)[C@H](C2CCCC2)N(C)C(=O)C2(CCCC2)NC(=O)[C@@H]2CC(F)(F)CCN2C(=O)[C@H](CCc2ccc(C(F)(F)F)c(Cl)c2)NC(=O)CN(C)C(=O)[C@@H]1Cc1ccc(C(F)(F)F)cc1 [PP0285] ([NMeL]I[NMeA][Aze][NPrPhe(4-CF3)][Sar][hPhe(3-Cl-4-CF3)][Pip(4,4-F2)][Ac5c][NMeGly(cPent)][NMeD]-Morpholide; lactam N-11) |  |  | 18.9 nM | B (a compound having 3 or more and less than 10 is denoted as B) | C (A compound having a KD ratio of 0.1 or more and less than 3 is denoted as C)
6 | CC[C@H](C)[C@@H]1NC(=O)[C@H](CC(C)C)N(C)C(=O)C[C@@H](C(=O)N2CCOCC2)N(C)C(=O)[C@H](C2CCCC2)N(C)C(=O)C2(CCCC2)NC(=O)[C@@H]2CCCN2C(=O)[C@H](CCc2ccc(C(F)(F)F)c(Cl)c2)NC(=O)CN(C)C(=O)[C@H](Cc2ccc(OC(F)(F)F)cc2)N2CC=CC[C@@H](C2=O)N(C)C(=O)CN(C)C1=O [PP0537] | C (A compound having a KD ratio of 0.1 or more and less than 3 is denoted as C) | C (A compound having a KD ratio of 0.1 or more and less than 3 is denoted as C) | 197 nM |  | 
7 | CCO[C@@H]1C[C@H]2C(=O)NC3(CC(C)(C)C3)C(=O)N(C)[C@@H](C3CCCC3)C(=O)N(C)[C@H](C(=O)N(C)CC)CC(=O)N(C)[C@@H](CC)C(=O)N[C@@H]([C@@H](C)CC)C(=O)N(C)CC(=O)N(C)[C@H]3C/C=C\CCN(C3=O)[C@@H](Cc3ccc(C(F)(F)F)cc3)C(=O)N(C)CC(=O)N[C@@H](CCc3ccc(Cl)c(Cl)c3)C(=O)N2C1 [PP2822] |  |  | 14.1 nM | A (a compound having 10 or more and less than 20 is denoted as A) | A (a compound having 10 or more and less than 20 is denoted as A)
8 | CC[C@H](C)[C@@H]1NC(=O)[C@H](CC(C)C)N(C)C(=O)C[C@@H](C(=O)N2CCOCC2)N(C)C(=O)[C@H](C2CCCC2)N(C)C(=O)C(C)(C)NC(=O)[C@@H]2CCCN2C(=O)[C@H](CCc2cc(F)c(C(F)(F)F)c(F)c2)NC(=O)CN(C)C(=O)[C@H](Cc2ccc(C(F)(F)F)cc2)N2CCCC[C@@H](C2=O)N(C)C(=O)CN(C)C1=O [PP0565] | B (a compound having 3 or more and less than 10 is denoted as B) | C (A compound having a KD ratio of 0.1 or more and less than 3 is denoted as C) | 11.5 nM |  | 
9 | CCCOC[C@H]1C(=O)N[C@@H]([C@@H](C)CC)C(=O)N(C)CC(=O)N(C)[C@H]2C/C=C\CCN(C2=O)[C@@H](Cc2ccc(C(F)(F)F)cc2)C(=O)N(C)CC(=O)N[C@@H](CCc2ccc(C(F)(F)F)c(Cl)c2)C(=O)N2C[C@H](OCC)C[C@H]2C(=O)NC2(CCC2)C(=O)N(C)[C@@H](C2CCCC2)C(=O)N(C)[C@H](C(=O)N(C)CCC)CC(=O)N1C [PP2831] |  |  | 14.1 nM | A (a compound having 10 or more and less than 20 is denoted as A) | A (a compound having 10 or more and less than 20 is denoted as A)
10 | CCO[C@@H]1C[C@H]2C(=O)NC3(CCC3)C(=O)N(C)[C@@H](C3CCCC3)C(=O)N(CC)[C@H](C(=O)N(C)C)CC(=O)N(C)[C@@H](CC)C(=O)N[C@@H]([C@@H](C)CC)C(=O)N(C)CC(=O)N(C)[C@H]3CCCCN(C3=O)[C@@H](Cc3ccc(C(F)(F)F)cc3)C(=O)N(C)CC(=O)N[C@@H](CCc3cc(F)c(C(F)(F)F)c(F)c3)C(=O)N2C1 [PP0643] | B (a compound having 3 or more and less than 10 is denoted as B) | C (A compound having a KD ratio of 0.1 or more and less than 3 is denoted as C) | 6.5 nM |  | 
11 | CCCN1C(=O)CN(C)C(=O)CN(C)C(=O)[C@H]([C@@H](C)CC)NC(=O)[C@@H]2CCC=CCOc3ccc(cc3)C[C@H]1C(=O)N(C)CC(=O)N[C@@H](CCc1cc(F)c(C(F)(F)F)c(F)c1)C(=O)N1C[C@H](OCC)C[C@H]1C(=O)NC1(CCCC1)C(=O)N(C)[C@@H](C1CCCC1)C(=O)N(C)[C@H](C(=O)N(C)C)CC(=O)N2C [PP0900] ([X47]I[Sar][Sar][X48][Sar][hPhe(3,5-F2-4-CF3)][Hyp](Et)[Ac5c][NMeGly(cPent)][NMeD]-NMe2; staple 1-5; lactam N-11) |  |  | 4.9 nM | C (A compound having a KD ratio of 0.1 or more and less than 3 is denoted as C) | C (A compound having a KD ratio of 0.1 or more and less than 3 is denoted as C)
